Target: efflux pump P-gp (Homo sapiens, UniProt P08183)
Conditions: Figure 11; for Effect on the rate of excretion of rhodamine 123 (R123) out of Caco-2 cells / interaction with P-gp: Caco-2 cells loaded with 10 μM R123, compared to control DMSO
Method: Results are expressed as percentage compared to the rate of excretion of R123 in the absence of drug (i.e control DMSO). Error bars: SD; verapamil: positive control; diazepam: negative control.
Shortly, Caco-2 cells were washed with HEPES-buffered Ringer’s (RH) solution (NaCl 150 mM, KCl 5.2 mM, CaCl2 2.2 mM, MgCl2 0.2 mM, NaHCO3 6 mM, Glucose 2.8 mM, HEPES 5 mM, water for injection), pH = 7.4 and incubated for 120 min with 10 μM R123. After incubation, cells were washed with RH and incubated with test compounds for one hour during which the rate out (Kout) of R123 (λex = 485 nm and λem = 538 nm) was monitored every 2 minutes with a microplate fluorescence reader (Fluoroskan Ascent FL, Thermo Labsystems, Issy-Les-Moulineaux, France) at 37 °C, after which the cell viability was assessed using MTT cytotoxicity assay kit. Rhodamine Kout was calculated as the slope of the curve of the cumulative R123 fluorescence against the time. Verapamil was used as a positive control and diazepam as negative control.

Sequence of efflux pump P-gp (P08183 whole entry): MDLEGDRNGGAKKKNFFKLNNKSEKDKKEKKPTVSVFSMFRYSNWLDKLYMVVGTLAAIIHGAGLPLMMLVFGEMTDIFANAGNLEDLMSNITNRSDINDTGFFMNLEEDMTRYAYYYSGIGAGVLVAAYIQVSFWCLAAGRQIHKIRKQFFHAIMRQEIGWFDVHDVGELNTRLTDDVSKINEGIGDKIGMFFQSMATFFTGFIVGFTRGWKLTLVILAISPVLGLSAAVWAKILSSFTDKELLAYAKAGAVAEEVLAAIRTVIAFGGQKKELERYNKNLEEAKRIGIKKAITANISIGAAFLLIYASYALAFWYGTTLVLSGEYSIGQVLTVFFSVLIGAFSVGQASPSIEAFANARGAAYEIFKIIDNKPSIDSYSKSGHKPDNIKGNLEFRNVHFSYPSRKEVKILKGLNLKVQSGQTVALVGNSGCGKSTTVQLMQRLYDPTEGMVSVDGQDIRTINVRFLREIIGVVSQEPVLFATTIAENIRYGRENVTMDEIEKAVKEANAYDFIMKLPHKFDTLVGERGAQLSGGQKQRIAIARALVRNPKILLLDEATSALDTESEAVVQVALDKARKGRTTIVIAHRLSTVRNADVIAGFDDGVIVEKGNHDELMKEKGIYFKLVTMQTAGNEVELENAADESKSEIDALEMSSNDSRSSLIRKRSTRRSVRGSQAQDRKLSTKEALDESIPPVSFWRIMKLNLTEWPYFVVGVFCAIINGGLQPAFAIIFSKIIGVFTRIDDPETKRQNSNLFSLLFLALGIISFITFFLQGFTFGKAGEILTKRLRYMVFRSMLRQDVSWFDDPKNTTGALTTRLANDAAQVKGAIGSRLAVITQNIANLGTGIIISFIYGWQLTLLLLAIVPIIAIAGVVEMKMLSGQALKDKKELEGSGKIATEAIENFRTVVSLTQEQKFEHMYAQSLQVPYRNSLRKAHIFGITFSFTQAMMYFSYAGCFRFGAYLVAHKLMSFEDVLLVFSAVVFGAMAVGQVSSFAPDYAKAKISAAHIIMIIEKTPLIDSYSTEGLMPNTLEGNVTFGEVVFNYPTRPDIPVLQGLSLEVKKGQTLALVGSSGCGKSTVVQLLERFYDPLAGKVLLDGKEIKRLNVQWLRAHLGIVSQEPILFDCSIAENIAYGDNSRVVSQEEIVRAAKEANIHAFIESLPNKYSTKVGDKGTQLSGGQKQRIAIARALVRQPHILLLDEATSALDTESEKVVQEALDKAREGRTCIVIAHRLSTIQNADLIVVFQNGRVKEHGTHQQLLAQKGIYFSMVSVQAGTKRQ

Structure (SMILES)	Effect on the rate of excretion of rhodamine 123 (R123) out of Caco-2 cells / interaction with P-gp	Interference with the P-gp mediated efflux of R123 out of Caco-2 cells (compound at 50 µM, Caco-2 cells)
NCCC(O)(P(=O)(O)O)P(=O)(O)O [APD, pamidronate]	did not show any interaction	
CS(=O)(=O)OCCCCOS(C)(=O)=O [BU, busulfan]	not transported by P-gp	
C[n+]1ccc(-c2cc[n+](C)cc2)cc1 [PQ, paraquat]		do not interfere
CCCC(CCC)C(=O)O [VPA, valproic acid]	not transported by P-gp	

From publication PMC7312539, “Homology Modeling of the Human P-glycoprotein (ABCB1) and Insights into Ligand Binding through Molecular Docking Studies” (International Journal of Molecular Sciences, 2020)
